{"source": "patent US20020072601A1", "about": "“Method for forming amino acid derivatives from tricyclic diketopiperazines” (University of Southern Mississippi, priority 2000, published 2002)", "assay": "Gelation studies: minimum concentration needed for solvent gelation", "type": "physicochemical", "conditions": "cooled to room temperature", "procedure": "The ring-opening reaction of PyDKP with certain nucleophiles (Reaction 3) forms a class of pyroglutamate derivatives that gel organic solvents. In these experiments, the solubility and minimum concentration needed for solvent gelation were determined. Tetradecyl pyroglutamide was placed in various solvents which were then heated to their boiling point, except silicone and soybean oil, which were heated to 150° C. to prevent decomposition of the gelator. In most cases, regardless of partial insolubility in some instances, the various solvents formed immobile gels upon cooling to room temperature. All of the gels were thermoreversible, meaning the gel would revert back to liquid with the application of heat and then reform with cooling."}
{"smiles": "CCCCCCCCCCCCCCNC(=O)[C@@H]1CCC(=O)N1", "note": "[N-tetradecyl pyroglutamide, N-Pyroglutamyl tetradecylamine]", "values": [{"measurement": "gel Concentration", "setting": "1-Propanol", "result": 50, "unit": "g/L"}, {"measurement": "gel Concentration", "setting": "Acetonitrile", "result": 15, "unit": "g/L"}, {"measurement": "gel Concentration", "setting": "Benzene", "result": 100, "unit": "g/L"}, {"measurement": "gel Concentration", "setting": "Butanol", "result": 100, "unit": "g/L"}, {"measurement": "gel Concentration", "setting": "Chloroform", "result": 160, "unit": "g/L"}, {"measurement": "gel Concentration", "setting": "Dichioromethane", "result": 50, "unit": "g/L"}, {"measurement": "gel Concentration", "setting": "Ethanol", "result": 30, "unit": "g/L"}, {"measurement": "gel Concentration", "setting": "Methanol", "result": 30, "unit": "g/L"}, {"measurement": "gel Concentration", "setting": "Silicone Oil", "result": 11, "unit": "g/L"}, {"measurement": "gel Concentration", "setting": "Soybean Oil", "result": 11, "unit": "g/L"}]}
